Results on 2 compounds are retold here after paper PMC12024213, “Mechanism Insight of Cell Death Signaling by Thymol Derivatives on Trypanosomatidae Protozoan Parasites” (Antibiotics, 2025).

In one data set the test system is T. cruzi. Description: ATP level, CellTiter-Glo, T. cruzi. The conditions noted are these: IC90, 24 h, luminescence. The data set is classed as cell-based, Trypanosoma cruzi. The procedure: (§1) The adenosine triphosphate (ATP) level was measured using the CellTiter-Glo Luminescent Cell Viability Assay (Promega, Madrid, Spain). The mitochondria in which most cellular oxidations occur is considered the main source of cell’s ATP; any damage and/or malfunction of this organelle generate the depletion of ATP levels.

The nature of data set [1]: Cytotoxicity assay on murine macrophages (alamarBlue). Type of data set: cell-based. The conditions noted are these: mouse, J774.A1 macrophage cell line, mean ± SD. The protocol:
(§2) Cytotoxicity effect of the tested derivatives was conducted using macrophages of the murine cell line J774.A1 (American Type Culture Collection #TIB-67, city, country), as previously described. The cells were maintained in DMEM at 37 °C in a 5% CO2 humidified incubator. All the plates containing alamarBlue® were analyzed using a plate reader EnSpire Multimode Plate Reader® at excitation and emission wavelengths of 570 and 585 nm, respectively (PerkinElmer, ThermoFisher Scientific, Madrid, Spain). The IC50 (concentrations able to inhibit 50% of parasites), IC90 (concentrations able to inhibit 90% of parasites), and CC50 (concentration able to inhibit 50% of murine macrophages) values were determined for each compound by nonlinear regression using GraphPad software.

The test system of data set [2] is L. amazonensis promastigotes. The data set can be described thus: alamarBlue assay on L. amazonensis promastigotes. The conditions noted are these: Leishmania amazonensis. The data set is classed as cell-based, Leishmania amazonensis. The protocol:
(§3) The assay was conducted using the alamarBlue® method as previously described. Briefly, promastigotes of L. amazonensis were grown at 26 °C in Schneider’s medium (US Biological, Life sciences) and supplemented with 10% heat-inactivated fetal bovine serum and 0.04% of sodium bicarbonate. In a 96-well microtiter plates (Corning™, Corning, NY, USA) a serial dilutions of thymol derivatives were first prepared, and later, 10^6 parasites/mL were added into each well. Subsequently, 10% of alamarBlue® was added to the entire plate. The plates were incubated for 72 h at 26 °C.
as §2

Data set [3] is described as follows: alamarBlue assay on L. amazonensis promastigotes. Type of data set: cell-based, Leishmania amazonensis. Particulars: mouse; CC50 J774.A1 / IC50 L. amazonensis promastigotes; read-out: Selectivity Leishmania SI (CC50/IC50). The protocol: as §3, §2
Data set [4] has as its system T. cruzi epimastigotes. Description: Monodansylcadaverine staining of autophagic vacuoles, T. cruzi. The data set is classed as cell-based, Trypanosoma cruzi. Particulars: 24 h treatment, confocal microscopy. The procedure:
The present method consists of staining the autophagic vacuoles with the treated cells by ion trapping and specific interactions with the vesicle membrane lipids. The experiment was carried out by following the manufacturer’s recommendations, and as described previously. After 24 h of incubation, cells were stained with MDC reagent at 5 mM and incubated at 26 °C for 30 min in µ-Slide 8 (Ibidi, Gräfelfing, Germany). Later, the cells were washed with PBS and observed with Leica DMI 4000 B.

The test system of data set [5] is T. cruzi epimastigotes. The data set can be described thus: Hoechst/PI double stain, chromatin condensation, T. cruzi. Type of data set: cell-based, Trypanosoma cruzi. Particulars: IC90, 24 h. From the text:
(§4) To identify the type of cell death occurring in both kinetoplastids after treatment, Hoechst 33342 and propidium iodide (PI) dyes were used. Even though both dyes are DNA affine, the Hoechst 33342 stain is cell permeable and known to distinguish apoptotic cells from healthy or necrotic cells, whereas the PI is cell impermeable and stain dead cells as late apoptotic or necrosis. After treatment, three types of staining could be observed: blue fluorescence for cells undergoing apoptosis, violet color as the merge of blue and red fluorescence for late apoptotic cells, and red color for dead cells.

Another data set concerns L. amazonensis. Description: ATP level, CellTiter-Glo, L. amazonensis. Particulars: IC90, 24 h, luminescence. Type of data set: cell-based, Leishmania amazonensis. The procedure: as §1
The subject of the next data set is intramacrophage T. cruzi. The data set can be described thus: Intramacrophagic stage assay, T. cruzi in J774.A1 macrophages. Type of data set: cell-based, Trypanosoma cruzi. The conditions noted are these: Trypanosoma cruzi; intramacrophage stage in J774.A1, 24 h treatment; mean ± SD; read-out: T. cruzi Intracellular IC50. The protocol:
(§5) Briefly, in a 96-well plate, macrophages from the J774.A1 cell line were seeded at a final concentration of 2 × 10^5 cells/mL in Dulbecco’s Modified Eagle Medium (DMEM) and maintained at 37 °C in a 5% CO2 atmosphere until fully adhesion. Cells were infected either with L. amazonensis promastigotes (at a ratio of 1:10) or epimastigotes of T. cruzi (at a ratio of 1:7) (macrophage: parasite) and incubated at 37 °C in 5% CO2 for 24 h for Leishmania and 48 h for Trypanosoma. After infection, plates were washed using DMEM to eliminate external parasites. Subsequently, infected macrophages were treated with different concentrations of active compounds for 24 h. Later, macrophages were lysed using 30 μL of medium, Schneider for Leishmania, and in liver infusion tryptose for Trypanosoma, containing 0.05% of sodium dodecyl sulfate (SDS) for 30 s under agitation. Afterwards, 170 μL of the appropriated medium was derivatives added to each well to give a final volume of 200 μL. Subsequently, 10% of alamarBlue® was added into each well and the plate was incubated at 26 °C for 72 h.
as §2

Assay in data set [6]: as above
The data set is classed as cell-based, Trypanosoma cruzi. The conditions noted are these: mouse; CC50 J774.A1 / IC50 intracellular T. cruzi; read-out: Selectivity Trypanosoma SI (CC50/IC50). The protocol:
as §5, §2

The subject of data set [7] is T. cruzi epimastigotes. The data set can be described thus: alamarBlue assay on T. cruzi epimastigotes. The conditions noted are these: Trypanosoma cruzi. Type of data set: cell-based, Trypanosoma cruzi. The protocol:
(§6) In a 96-well plate, a serial dilution of the tested derivatives was performed in liver infusion tryptose medium supplemented with 10% heat inactivated fetal bovine serum. Later, 100 µL of 5 × 10^5 cells/mL of epimastigotes was added to each well. Afterwards, 20 µL of alamarBlue® was added to each well, and the plate was maintained at 26 °C for 72 h.
as §2

Data set [8] in a line: alamarBlue assay on T. cruzi epimastigotes. Type of data set: cell-based, Trypanosoma cruzi. The conditions noted are these: mouse; CC50 J774.A1 / IC50 T. cruzi epimastigotes; read-out: Selectivity Trypanosoma SI (CC50/IC50). The protocol:
as §6, §2

For data set [9], the system named is L. amazonensis promastigotes. Description: Hoechst/PI double stain, chromatin condensation, L. amazonensis. Type of data set: cell-based, Leishmania amazonensis. The conditions noted are these: IC90, 24 h.
Excerpt: as §4

Where [10] appears, read: 72 h, promastigotes, alamarBlue, 72 h at 26 °C, mean ± SD, triplicates, read-out: L. amazonensis Promastigote IC50.
[11] abbreviates: 72 h, epimastigotes, alamarBlue, 72 h at 26 °C, mean ± SD, triplicates, read-out: T. cruzi Epimastigote IC50.

Where two headings read alike, the source gives them in different places. Where only a bound is given, the exact number is not on record here.

With `COc1ccc(C(=O)Oc2cc(C)ccc2C(C)C)cc1` [Derivative 9, thymyl anysoate], the “decrease of ATP production compared to negative control” value with T. cruzi was found to be 65%; in the data set with L. amazonensis, 84%. Further, the CC50 in data set [1] was more than 300 µM. The IC50 in data set [2] (setting [10]) is 29.1 ± 3.8 µM; in data set [2] (abstract, stage not stated, read-out: IC50 against L. amazonensis (abstract)) it was 22.9 µM; with intramacrophage T. cruzi it was 9.1 ± 0.5 µM; with T. cruzi epimastigotes [7] (setting [11]) it was 26.8 ± 2.2 µM. Besides, the selectivity ratio in data set [3] is more than 10.3; in data set [6], more than 33; in data set [8] it was more than 11.2. The “autophagic vacuoles (MDC staining)” value with T. cruzi epimastigotes [4] is “Induction of autophagy”. Moreover, the “chromatin condensation (Hoechst/PI staining)” value (in the data set with T. cruzi epimastigotes [5]; in [9]) was “increasing the chromatin condensation” in each case.

For the compound `Cc1ccc(C(C)C)c(OC(=O)c2ccccn2)c1` [Derivative 10, thymyl picolinate], the results for the “decrease of ATP production compared to negative control” value with T. cruzi and in the data set with L. amazonensis were 50% and 67%, respectively. Moreover, in data set [1], it took 254.5 ± 1.9 µM to reach half-maximal cytotoxicity (CC50). In addition, the IC50 in data set [2] (setting [10]) is 34.4 ± 2.3 µM; in the data set with intramacrophage T. cruzi, 28.8 ± 5.6 µM; in the data set with T. cruzi epimastigotes [7] (setting [11]), 35.5 ± 2.5 µM; in the data set with T. cruzi epimastigotes [7] (abstract, stage not stated, read-out: IC50 against T. cruzi (abstract)), 25.2 µM. For the same compound, the selectivity ratio was 7.4 in data set [3], 8.8 in data set [6] and 7.2 in [8]. In addition, the “autophagic vacuoles (MDC staining)” value in the data set with T. cruzi epimastigotes [4] is given as “Induction of autophagy”. The “chromatin condensation (Hoechst/PI staining)” value (in the data set with T. cruzi epimastigotes [5]; in data set [9]) was “increasing the chromatin condensation” each time.
